# According to publication PMC10366102, “Dose escalation and expansion cohorts in patients with advanced breast cancer in a Phase I study of the CDK7-inhibitor samuraciclib” (Nature Communications, 2023):
# Columns and labels:
# [1] = tested on: patients with locally advanced and/or metastatic TNBC; details: both, human, in vivo
# Experimental: A single arm expansion was conducted to refine the safety, tolerability, PK, and pharmacodynamic profiles of samuraciclib monotherapy (360 mg OD) in male or female patients with advanced TNBC. Patients with histological, radiological or cytological confirmation of metastasis or locally advanced TNBC not considered to be appropriate for further standard treatment, who had received at least 1 line of systemic anti-cancer therapy, and measurable disease according to the RECIST V1.1, were eligible.
# Patients underwent regular safety monitoring and 8-week scans reported using RECIST V1.1.
# Module 1B-1 was a cohort expansion to explore the safety, tolerability, PK and pharmacodynamic effects, and anti-tumor activity of samuraciclib when given as monotherapy to patients with advanced TNBC; participants were treated at a starting dose of 360 mg once daily (OD). The initial sample size was to be a maximum of 50 participants, of whom approximately 30 participants were to receive the CT7001 dosing regimen which was declared as the RP2D.
# Module 1B-1 included an interim efficacy analysis when 15 patients in the RP2D Population were evaluable for efficacy assessments. The Module 1B-1 TNBC expansion phase was designed using a 2-stage design. The null hypothesis for the ORR was 10% and this was tested against an alternative […]
# patients were to be recruited, and the […]. Otherwise, recruitment was to continue until up to a total of 30 evaluable patients were recruited and if ≥6/30 (20%) responses were observed, across both stages of the study, the null hypothesis was to be rejected. At the timepoint for the interim efficacy assessment, the requirement of 2 or more participants achieving a Response Evaluation Criteria in Solid Tumors (RECIST) PR had not been met, with only 1 participant in the first 15 evaluable participants achieving a PR. However, 8 out of 15 evaluable participants achieved SD, with 4 participants being treated for at least 16 weeks, which in this aggressive tumor type is of significant clinical note. Following discussion with the SRC it was agreed that further evaluable participants would be recruited into this expansion study.
# The schedule of assessments for this study is provided in Supplementary Table 3. […]
# Duration of response (DoR) was defined as the time from documentation of tumor response to disease progression. Progression-free survival (PFS) was […]
# cause, whichever occurred first. Efficacy results were summarized descriptively and Kaplan -Meier plots provided where appropriate. […]
# received at least 1 dose of samuraciclib). These were summarized by Medical Dictionary for Regulatory […]
# adverse events (SAEs) were analyzed and reported separately. Details of any deaths were listed. All […]
# were listed individually by patient and summarized descriptively. For urinalysis parameters, any […]
# positive. Abnormal physical examina tion findings were listed.
# hERG channel = tested on: hERG channel; parameters: method as in ref IB; details: whole-cell patch-clamp, HEK cells, ref IB, cited from earlier work
# reticulocyte counts = test: Reticulocyte counts in Module 1A patients; assay type: in vivo, human
# From the text: Enumeration of reticulocyte counts was used as a biomechanical PDc marker, based on the mechanistic r ationale and non-clinical d ata d escrib ed in Section V1.1.4. A cr oss all dose l evels […]
# 2). Subjects who cam e o ff treatment fo r unrelated reasons have shown a s ubsequent increase […]
# induced and reversible.Of note, across dose levels and cycl es anaemia has been uncommon to date (see IB). However, it is to be recognized that onl y few Module 1A patients have stayed on CT7001 for four months or longer.
# Fi g u re 2: Average reticulocyte counts across first three dosing cohorts (120, 240 & 480 […]
# Reticulocyte co unts for subj ects across the three cohorts were monitored over time. Values on treatment were nor malized to the avera ge value observed for each patient fro m scree ni ng a nd p re-treatment c ycle 0 sa mp les. Data are mean ± standard error of the mean for between n=35 and n=1 samples (denoted by symbol color). Linear […]
# V1.1.5.4 Minimum Biologically Active Dos e (MBA D)
# The study’s SRC originally d eclar ed 240 mg OD as MBAD based on observed target toxicit y (diarrhoea), target-medi ated PDc ef fect on reticul ocyt e counts and preliminar y si gnals of anti-tumour activity. This prompted the opening of a cohort with paired breast cancer biopsies at […]
# similar biological activity as observed for 240 m g OD, including PDc and anti-tumour ef fects. […]
# CYP2C9 = tested on: CYP2C9; parameters: method as in ref IB; details: human microsomes; ref IB; cited from earlier work
smiles,measurement,setting,value
"CC(C)c1cnn2c(NCc3ccccc3)cc(NC[C@H]3CCNC[C@@H]3O)nc12 [samuraciclib, Samuraciclib]",ALT increased; All AEs,[1],0 patients (%)
same,ALT increased; Grade ≥3,[1],0 patients (%)
same,AST increased; All AEs,[1],0 patients (%)
same,AST increased; Grade ≥3,[1],0 patients (%)
same,Abdominal pain upper; All AEs,[1],0 patients (%)
same,Abdominal pain upper; Grade ≥3,[1],0 patients (%)
same,Abdominal pain; All AEs,[1],6 (26.1) patients (%)
same,Abdominal pain; Grade ≥3,[1],0 patients (%)
same,Anemia; All AEs,[1],0 patients (%)
same,Anemia; Grade ≥3,[1],1 (4.3) patients (%)
same,Any treatment-emergent AE; All AEs,[1],23 (100.0) patients (%)
same,Any treatment-emergent AE; Grade ≥3,[1],10 (43.5) patients (%)
same,Back pain; All AEs,[1],0 patients (%)
same,Back pain; Grade ≥3,[1],0 patients (%)
same,Constipation; All AEs,[1],7 (30.4) patients (%)
same,Constipation; Grade ≥3,[1],0 patients (%)
same,Cough; All AEs,[1],3 (13.0) patients (%)
same,Cough; Grade ≥3,[1],0 patients (%)
same,Decreased appetite; All AEs,[1],3 (13.0) patients (%)
same,Decreased appetite; Grade ≥3,[1],0 patients (%)
same,Diarrhea; All AEs,[1],21 (91.3) patients (%)
same,Diarrhea; Grade ≥3,[1],3 (13.0) patients (%)
same,Discontinued samuraciclib due to related AEs,[1],4.3%
same,Dizziness; All AEs,[1],0 patients (%)
same,Dizziness; Grade ≥3,[1],0 patients (%)
same,Dysgeusia; All AEs,[1],0 patients (%)
same,Dysgeusia; Grade ≥3,[1],0 patients (%)
same,Dysphagia; All AEs,[1],0 patients (%)
same,Dysphagia; Grade ≥3,[1],0 patients (%)
same,Dyspnea; All AEs,[1],0 patients (%)
same,Dyspnea; Grade ≥3,[1],0 patients (%)
same,Fatigue; All AEs,[1],11 (47.8) patients (%)
same,Fatigue; Grade ≥3,[1],1 (4.3) patients (%)
same,Headache; All AEs,[1],0 patients (%)
same,Headache; Grade ≥3,[1],0 patients (%)
same,Hyperglycemia; All AEs,[1],0 patients (%)
same,Hyperglycemia; Grade ≥3,[1],0 patients (%)
same,Hypocalcaemia; All AEs,[1],0 patients (%)
same,Hypocalcaemia; Grade ≥3,[1],0 patients (%)
same,Hypokalaemia; All AEs,[1],0 patients (%)
same,Hypokalaemia; Grade ≥3,[1],0 patients (%)
same,Nausea; All AEs,[1],22 (95.7) patients (%)
same,Nausea; Grade ≥3,[1],1 (4.3) patients (%)
same,Rash; All AEs,[1],0 patients (%)
same,Rash; Grade ≥3,[1],0 patients (%)
same,Stomatitis; All AEs,[1],3 (13.0) patients (%)
same,Stomatitis; Grade ≥3,[1],1 (4.3) patients (%)
same,Taste disorder; All AEs,[1],0 patients (%)
same,Taste disorder; Grade ≥3,[1],0 patients (%)
same,Upper respiratory tract infection; All AEs,[1],3 (13.0) patients (%)
same,Upper respiratory tract infection; Grade ≥3,[1],0 patients (%)
same,Urinary tract infection; All AEs,[1],0 patients (%)
same,Urinary tract infection; Grade ≥3,[1],0 patients (%)
same,Vomiting; All AEs,[1],14 (60.9) patients (%)
same,Vomiting; Grade ≥3,[1],2 (8.7) patients (%)
same,Weight decreased; All AEs,[1],0 patients (%)
same,Weight decreased; Grade ≥3,[1],0 patients (%)
same,Reticulocyte counts,reticulocyte counts; across all dose levels tested in Module 1A,decline in reticulocyt
same,Increase of reticulocyte counts after coming off treatment,reticulocyte counts; p = 0.08,25%
